Experiments:
Format in all cases: biochemical
[1] = system: FKBP protein fused to a variant of AGT available from Covalys as SNAP26 (SNAP-FKBP); experiment: Reactivity with FKBP-AGT fusion protein: protein trimer formation by SDS-PAGE and coomassie staining; details: 4 h incubation at rt; SDS-PAGE, coomassie staining
Description: 1 μL of a 591 μM solution of FKBP protein fused to a variant of AGT available from Covalys as SNAP26 and 1 μL of a 100 μM solution of compound (89), (90), (91), (92) or (96) are added to 8 μL of a solution of 50 mM Tris-HCl pH 7.5; 100 mM NaCl; 0.1% Tween20; 1 mM DTT. Following a 4 h incubation at rt, 15 μL of a solution of 100 mM Tris-HCl pH 6.8; 2% SDS; 35% glycerol; 10 mM EDTA; 20 mM DTT is added. The mixture is boiled for 5 min at 95° C. After cooling to rt, 25 μL of this solution is loaded on a 4-20% linear gradient SDS-PAGE gel. After electrophoresis, the proteins are coomassie stained in gel to visualize protein trimer.

[2] = system: fusion protein CLIP-FRB and the fusion protein SNAP-FKBP; experiment: Protein dimer formation with CLIP-FRB and SNAP-FKBP by SDS-PAGE; details: overnight incubation at 4° C., coomassie staining
Description: The structural ability of compound (104) and (105) to trigger the formation of a protein dimer is confirmed by in vitro experiments using the fusion protein CLIP-FRB and the fusion protein SNAP-FKBP. 1 μL of a 591 μM solution of FKBP protein fused to a variant of AGT available from Covalys as SNAP26, 10 μL of a 52.9 μM solution of FRB protein fused to a variant of AGT available from Covalys as CLIP and 1 μL of a 62.5 μM solution of mixture of compounds (104) and (105) is added to 3 μL of a solution of 50 mM Tris-HCl pH 7.5; 100 mM NaCl; 0.1% Tween20; 1 mM DTT. Following overnight incubation at 4° C., 15 μL of a solution of 100 mM Tris-HCl pH 6.8; 2% SDS; 35% glycerol; 10 mM EDTA; 20 mM DTT is added. Then the mixture is boiled for 5 min at 95° C. After cooling to rt, 25 μL of this solution is loaded on a 4-20% linear gradient SDS-PAGE gel. After electrophoresis, the proteins are coomassie stained in gel to visualize protein dimer.

fusion protein CLIP-FRB = experiment: Protein trimer formation with CLIP-FRB by SDS-PAGE; details: 4 h incubation at rt, coomassie staining
Sequence of fusion protein CLIP-FRB (P16455 1-182 with the stated changes limits assumed): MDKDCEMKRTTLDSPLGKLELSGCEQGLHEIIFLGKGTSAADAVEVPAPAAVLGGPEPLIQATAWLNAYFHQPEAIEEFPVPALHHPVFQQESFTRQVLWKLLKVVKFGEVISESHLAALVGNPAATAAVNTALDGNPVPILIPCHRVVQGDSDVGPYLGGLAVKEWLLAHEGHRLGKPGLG
Description: To a solution of N-tris[(2-carboxyethoxy)methyl]methyl nile red-oxyacetamide (86) (10 mg, 0.014 mmol) and BC-PEG12-NH2 (98) (41 mg, 0.049 mmol, 3.5 eq) in DMF (1 mL) are successively added DIPEA (8.1 μL, 0.049 mmol, 3.5 eq), HOBT (1 M in NMP, 14 μL, 0.014 mmol, 1 eq) and EDC (10 mg, 0.049 mmol, 3.5 eq) at rt. The resulting mixture is stirred overnight. The solvent is evaporated under vacuum and compound (99) isolated by reversed phase HPLC on a C18 column using a linear gradient of water:acetonitrile (from 95:5 to 20:80 in 20 min, 0.08% TFA). The structural ability of compound (99) to trigger the formation of a protein trimer is confirmed by in vitro experiments using the fusion protein CLIP-FRB. 20 μL of a 52.9 μM solution of FRB protein fused to a variant of AGT available from Covalys under the trade name CLIP and 2 μL of a 100 μM solution of compound (99) is added to 3 μL of a solution of 50 mM Iris-HCl pH 7.5; 100 mM NaCl; 0.1% Tween20; 1 mM DTT. Following a 4 h incubation at rt, 15 μL of a solution of 100 mM Tris-HCl pH 6.8; 2% SDS; 35% glycerol; 10 mM EDTA; 20 mM DTT is added. Then the mixture is boiled for 5 min at 95° C. After cooling to rt, 25 μL of this solution is loaded on a 4-20% linear gradient SDS-PAGE gel. After electrophoresis, the proteins are coomassie stained in gel to visualize protein trimer.

[3] = system: HaloTag protein available from Promega Corporation; experiment: Protein trimer formation with HaloTag protein by SDS-PAGE; details: 4 h incubation at rt, coomassie staining
Description: To a solution of N-tris[(2-carboxyethoxy)methyl]methyl nile red-oxyacetamide (86) (6 mg, 0.0083 mmol) and 18-chloro-3,6,9,12-tetraoxaoctadecan-1-amine (10 mg, 0.029 mmol, 3.5 eq) in DMF (1 mL) are successively added pyridine (5 μL, 0.058 mmol, 7 eq), HOBT (1 M in NMP, 8.3 μL, 0.0083 mmol, 1 eq) and EDC (6 mg, 0.029 mmol, 3.5 eq) at rt. The resulting mixture is stirred overnight. The solvent is evaporated under vacuum and compound (100) isolated by reversed phase HPLC on a C18 column using a linear gradient of water:acetonitrile (from 95:5 to 20:80 in 20 min, 0.08% TFA). The structural ability of compound (100) to trigger the formation of a protein trimer is confirmed by in vitro experiments using the fusion protein H2. 10 μL of a 70 μM solution of HaloTag protein available from Promega Corporation and 1.8 μL of a 230 μM solution of compound (100) is added to 3.2 μL of a solution of 50 mM Tris-HCl pH 7.5; 100 mM NaCl; 0.1% Tween20; 1 mM DTT. Following a 4 h incubation at rt, 15 μL of a solution of 100 mM Tris-HCl pH 6.8; 2% SDS; 35% glycerol; 10 mM EDTA; 20 mM DTT is added. Then the mixture is boiled for 5 min at 95° C. After cooling to rt, 25 μL of this solution is loaded on a 4-20% linear gradient SDS-PAGE gel. After electrophoresis, the proteins are coomassie stained in gel to visualize protein trimer.

Sequence of FKBP protein fused to a variant of AGT available from Covalys as SNAP26 (SNAP-FKBP) (P16455 1-182 C62A/K125A/A127T/R128A/G131K/G132T/M134L/R135S/C150S/N157G/S159E limits assumed): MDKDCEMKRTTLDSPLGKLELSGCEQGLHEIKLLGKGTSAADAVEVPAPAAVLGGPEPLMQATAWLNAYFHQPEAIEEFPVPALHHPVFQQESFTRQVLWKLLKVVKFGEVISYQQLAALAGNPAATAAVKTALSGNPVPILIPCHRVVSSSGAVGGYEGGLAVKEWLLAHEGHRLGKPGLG

Compound | structural ability to trigger the formation of a protein trimer [1] | other results
N-Tris-{[2-(BG-PEG12-NH-carbonyl)ethoxy]methyl}methyl ATTO-495-carboxamide [Compound 90] | confirmed | –
N-Tris-{[2-(BG-PEG12-NH-carbonyl)ethoxy]methyl}methyl 5-maleimido-pentanecarboxamide [Compound 92] | confirmed | –
CN(C)c1ccc2c(-c3ccc(C(=O)NC(CCC(=O)NCc4ccc(COc5nc(N)nc6[nH]cnc56)cc4)C(=O)NCc4ccc(COc5nccc(N)n5)cc4)cc3C(=O)[O-])c3ccc(N(C)C)cc3[o+]c2c1 (centres unmarked) [Compound 104, N5-{4-[(2-amino-9H-purin-6-yloxy)methyl]benzyl}-N1-{4-[(4-aminopyrimidin-2-yloxy)methyl]benzyl}-2-tetramethylrhodamine-5-carboxamido-pentanediamide] | – | structural ability to trigger the formation of a protein dimer [2]: confirmed
N-Tris-{[2-(BG-PEG12-NH-carbonyl)ethoxy]methyl}methyl 7-(diethylamino)-coumarin-3-carboxamide [Compound 89] | confirmed | –
N-Tris-{[2-(BG-PEG12-NH-carbonyl)ethoxy]methyl}methyl 3-[2-(2-maleimidoethyl)disulfanyl]propanoylamide [Compound 96] | confirmed | –
N-Tris-{[2-(BC-PEG12-NH-carbonyl)ethoxyl]methyl}methyl nile red-oxyacetamide [Compound 99] | – | structural ability to trigger the formation of a protein trimer (fusion protein CLIP-FRB): confirmed
N-Tris-{[2-(BG-PEG12-NH-carbonyl)ethoxy]methyl}methyl nile red-oxyacetamide [Compound 91] | confirmed | –
CCN(CC)c1ccc2nc3c4cc(OCC(=O)NC(COCCC(=O)NCCOCCOCCOCCOCCCCCCCl)(COCCC(=O)NCCOCCOCCOCCOCCCCCCCl)COCCC(=O)NCCOCCOCCOCCOCCCCCCCl)ccc4c(=O)cc-3oc2c1 [Compound 100, N-Tris-{[2-(halo-PEG4-NH-carbonyl)ethoxyl]methyl}methyl nile red-oxyacetamide] | – | structural ability to trigger the formation of a protein trimer [3]: confirmed

Reference: US20110014196A1, “Drug Transfer into Living Cells” (priority 2007, published 2011)
